# Test: Thermal stability compared with IPBC
# Format: physicochemical
row,Compound,thermal stability compared with IPBC
1,"CCCCNC(=O)OCC#CI.CCCCNC(=O)OCC#CI.c1cc(-c2ccncc2)ccn1 [Co-Crystal 2, Co-Crystal Containing 3-iodopropynyl butylcarbamate and 4,4′-bipyridine in a 2:1 Molar Ratio]",higher thermal stability
2,"Co-Crystal Containing 3-iodopropynyl butylcarbamate and N,N′-bis(4-pyridylcarbonyl)-1,6-hexanediamine in a 2:1 Molar Ratio [Co-Crystal 5]",higher thermal stability
3,Co-crystal containing 3-iodopropynyl butylcarbamate and 4-[2-(4-pyridinyl)ethyl]pyridine in a 2:1 Molar Ratio [Co-Crystal 1],higher thermal stability
